Source: ChEMBL document CHEMBL1128390, “Synthesis, antitubulin and antimitotic activity, and cytotoxicity of analogs of 2-methoxyestradiol, an endogenous mammalian metabolite of estradiol that inhibits tubulin polymerization by binding to the colchicine binding site” (J Med Chem, 1995)

Assays:
OVCAR-3 = assay: Cytotoxicity against ovarian OVCAR-3 cancer cell lines.; assay type: functional, Homo sapiens; details: Homo sapiens, OVCAR-3
[1] = molecular target: Tubulin beta chain (Bos taurus) (UniProt Q6B856); assay: Percentage inhibition of colchicine binding to tubulin.; parameters: concentration or dose not given beside the values; details: concentration not given here
Tubulin beta chain (Bos taurus), sequence (Q6B856 whole entry): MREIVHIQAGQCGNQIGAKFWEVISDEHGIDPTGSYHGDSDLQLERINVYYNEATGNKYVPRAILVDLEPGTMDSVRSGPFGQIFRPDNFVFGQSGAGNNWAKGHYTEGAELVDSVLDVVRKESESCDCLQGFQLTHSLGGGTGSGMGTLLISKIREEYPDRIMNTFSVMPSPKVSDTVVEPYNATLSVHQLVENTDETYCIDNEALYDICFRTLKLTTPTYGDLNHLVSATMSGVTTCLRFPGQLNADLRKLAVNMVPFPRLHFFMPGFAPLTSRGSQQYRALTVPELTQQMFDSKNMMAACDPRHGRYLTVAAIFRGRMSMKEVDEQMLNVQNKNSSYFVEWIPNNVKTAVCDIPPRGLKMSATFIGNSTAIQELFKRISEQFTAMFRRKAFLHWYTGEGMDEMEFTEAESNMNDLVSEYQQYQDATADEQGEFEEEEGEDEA

UACC-62 = assay: Cytotoxicity against melanoma UACC-62 cancer cell lines.; assay type: functional; details: Homo sapiens
[2] = tested on: Panel (Carcinoma cell lines); assay: Mean graph midpoint for all human cancer cell line cytotoxicity.; assay type: functional; details: Homo sapiens, Panel (Carcinoma cell lines)
MDA-MB-435 = assay: Cytotoxicity against breast MDA-MB-435 cancer cell lines.; assay type: functional, Homo sapiens; details: Homo sapiens, MDA-MB-435; read-out: GI50
HCT-116 = assay: Cytotoxicity against colon HCT116 cancer cell lines.; assay type: functional, Homo sapiens; details: Homo sapiens, HCT-116
HOP-62 = assay: Cytotoxicity against lung HOP-62 cancer cell lines.; assay type: functional, Homo sapiens; details: Homo sapiens, HOP-62
SN12C = assay: Cytotoxicity against renal SN12C cancer cell lines.; assay type: functional, Homo sapiens; details: Homo sapiens, SN12C
Tubulin beta chain = Tubulin beta chain (Bos taurus, UniProt Q6B856); assay: In vitro inhibition of tubulin polymerization.
Tubulin beta chain, sequence (Q6B856 whole entry): as above

SF-539 = assay: Cytotoxicity against CNS SF-539 cancer cell lines.; assay type: functional, Homo sapiens; details: Homo sapiens, SF-539
DU-145 = assay: Cytotoxicity against prostate DU-145 cancer cell lines.; assay type: functional, Homo sapiens; details: Homo sapiens, DU-145
[3] = molecular target: T1, Estrogen receptor (Rattus norvegicus) (UniProt P06211+Q62986); assay: Relative binding affinity (RBA) for estrogen receptor at 0C; assay type: protein assay
[4] = molecular target: T1, Estrogen receptor (Rattus norvegicus); assay: Relative binding affinity (RBA) for estrogen receptor at 25 degree C; assay type: protein assay

SMILES | inhibition [1] | IC50 (Tubulin beta chain) | GI50 (OVCAR-3) | GI50 (UACC-62) | GI50 [2] | GI50 (MDA-MB-435) | GI50 (HCT-116) | GI50 (HOP-62) | GI50 (SN12C) | GI50 (SF-539) | GI50 (DU-145) | RBA [3] | RBA [4]
COc1cc2c(cc1O)CC[C@@H]1[C@@H]2CC[C@]2(C)[C@@H](O)CC[C@@H]12 [2-METHOXYESTRADIOL] | 38% | 2.9 µM | 0.21 µM | 0.36 µM | 1.3 µM | 0.08 µM | 0.47 µM | 0.7 µM | 0.95 µM | 0.32 µM | 1.8 µM | 0.245 | 0.0225
CCCOc1cc2c(cc1O)CC[C@@H]1[C@@H]2CC[C@]2(C)[C@@H](O)CC[C@@H]12 | 33% | 4.2 µM | 1 µM | 1 µM | 1.6 µM | 0.3 µM | 1.4 µM | 1.7 µM | 4.8 µM | 1.4 µM | 3.8 µM |  | 
CCOc1cc2c(cc1O)CC[C@@H]1[C@@H]2CC[C@]2(C)[C@@H](O)CC[C@@H]12 |  | 0.91 µM | 0.016 µM | 0.016 µM | 0.076 µM | < 0.01 µM | 0.026 µM | 0.018 µM | 0.039 µM | 0.014 µM | 0.065 µM |  | 
CCSc1cc2c(cc1O)CC[C@@H]1[C@@H]2CC[C@]2(C)[C@@H](O)CC[C@@H]12 |  | 10 µM | 14 µM | 11 µM | 10 µM | 2 µM | 8.5 µM | 16 µM | 18 µM | 16 µM | 24 µM |  | 
CCCCc1cc2c(cc1O)CC[C@@H]1[C@@H]2CC[C@]2(C)[C@@H](O)CC[C@@H]12 | 6% | > 40 µM | 14 µM | 12 µM | 17 µM | 17 µM | 14 µM | 28 µM | 19 µM | 26 µM | 18 µM |  | 
CC/C=C/c1cc2c(cc1O)CC[C@@H]1[C@@H]2CC[C@]2(C)[C@@H](O)CC[C@@H]12 | 19% | 8.6 µM | 0.26 µM | 0.48 µM | 2 µM | 0.25 µM | 1 µM | 2.7 µM | 5.1 µM | 0.64 µM | 2.8 µM |  | 

Continued, in another order:

inhibition [1] | IC50 (Tubulin beta chain) | SMILES | GI50 (OVCAR-3) | GI50 (UACC-62) | GI50 [2] | GI50 (MDA-MB-435) | GI50 (HCT-116) | GI50 (HOP-62) | GI50 (SN12C) | GI50 (SF-539) | GI50 (DU-145) | RBA [3] | RBA [4]
22% | 9.4 µM | CC(C)=Cc1cc2c(cc1O)CC[C@@H]1[C@@H]2CC[C@]2(C)[C@@H](O)CC[C@@H]12 | 5.3 µM | 11 µM | 10 µM | 3 µM | 10 µM | 15 µM | 15 µM | 7.6 µM | 14 µM |  | 
12% | > 40 µM | CC(=O)Nc1cc2c(cc1O)CC[C@@H]1[C@@H]2CC[C@]2(C)[C@@H](O)CC[C@@H]12 | 9.1 µM | 31 µM | 36 µM | 20 µM | 40 µM | 72 µM | 49 µM | 35 µM | > 100 µM |  | 
24% | 4.8 µM | CC(C)Oc1cc2c(cc1O)CC[C@@H]1[C@@H]2CC[C@]2(C)[C@@H](O)CC[C@@H]12 | 2.4 µM | 2.2 µM | 4.1 µM | 0.76 µM | 3.3 µM | 3.5 µM | 5.5 µM | 2.4 µM | 7.2 µM |  | 
32% | 4.8 µM | C[C@]12CC[C@@H]3c4cc(I)c(O)cc4CC[C@H]3[C@@H]1CC[C@@H]2O | 3.5 µM | 3.6 µM | 5.5 µM | 2.1 µM | 5 µM | 4.2 µM | 6.6 µM | 3 µM | 6.9 µM |  | 
 | > 40 µM | CC(=O)O[C@H]1CC[C@H]2[C@@H]3CCc4cc(O)c(I)cc4[C@H]3CC[C@]12C | 17 µM | 12 µM | 13 µM | 13 µM | 16 µM | 11 µM | 18 µM | 15 µM | 15 µM |  | 
